Measured values published in patent US8071548B2, “Method of reducing injury to mammalian cells” (Nono, Inc., priority 2002, dated 2011).

What was measured:
[1] = system: NMDARs; experiment: NMDA-evoked 45Ca2+ accumulation in cortical cultures; format: cell-based, mouse; conditions: 50 nM pre-treatment
Procedure: Excitotoxicity and Ca^2+ accumulation measurements were performed identically to the methods described and validated in refs. 4 and 14. I used measurements of propidium iodide fluorescence as an index of cell death, and of radiolabelled ^45Ca^2+ accumulation for Ca^2+ load determinations in sister cultures on the same day. Experimental solutions were as previously described (4). Ca^2+ influx was pharmacologically channeled through distinct pathways as follows: To NMDARs by applying NMDA (×60 min) in the presence of both CNQX (Research Biochemicals Inc.) and nimodipine (Miles Pharmaceuticals), to non-NMDARs by applying kainic acid (×60 min or 24 h) in the presence of both MK-801 (RBI) and nimodipine, and to VSCCs using 50 mM K^+ solution (×60 min) containing 10 mM Ca^2+ and S(−)-Bay K 8644, an L-type channel agonist (300-500 nM; RBI), MK-801 and CNQX. Antagonist concentrations were (in μM): MK-801 10, CNQX 10, nimodipine 2. All three antagonists were added after the 60 min agonist applications for the remainder of all experiments (24 h). A validation of this approach in isolating Ca^2+ influx to the desired pathway in these cortical cultures has been published (4).

[2] = Baseline behaviours after single i.v. injection; format: in vivo, Sprague-Dawley rats; conditions: over 4 hours, 0.5-50 nmols/g
[3] = system: transient middle cerebral artery occlusion; experiment: Transient MCAO, dose study of infarct size; format: in vivo, Sprague-Dawley rats

Substance: Tat-KLSSIESDV [Tat-NR2B9c]
- uptake of 45Ca2+ produced by applying NMDA [1]: did not alter
- changes in sensory-motor, open field, or exploratory behaviour [2]: No significant changes
- efficacy of the lowest dose versus higher doses ([3]; 0.03 nmole/g, 3 h after stroke onset): equally effective
- infarct size versus control dose ([3]; 0.03, 0.3, 1 or 3 nmoles/g i.v. 3 h after stroke onset, measured 24 h after MCAO onset): significant reduction in infarct size
